Measurements: patent US6677308B1, “Meta-substituted phenylene sulphonamide derivatives” (G. D. Searle & Co., priority 1996, dated 2004)
Where a name gives a salt, the structure may show the parent alone. Read-outs that look alike come from different tables or passages of the source.

Key:
[1] = biological target: T1, Human vitronectin receptor (αvβ3) (Homo sapiens, UniProt P05106+P06756); assay: Vitronectin adhesion assay (solid phase receptor assay, competition with biotinylated vitronectin); format: binding
T1 construct: Human vitronectin receptor (αvβ3) was purified from human placenta as previously described; from tissue; host or cells: human placenta
Method: Vitronectin Adhesion Assay
Human vitronectin receptor (αvβ3) was purified from human placenta as previously described [Pytela et al., Methods in Enzymology, 144:475-489 (1987)]. Human vitronectin was purified from fresh frozen plasma as previously described [Yatohgo et al., Cell Structure and Function, 13:281-292 (1988)]. Biotinylated human vitronectin was prepared by coupling NHS-biotin from Pierce Chemical Company (Rockford, Ill.) to purified vitronectin as previously described [Charo et al., J. Biol. Chem., 266(3):1415-1421 (1991)]. Assay buffer, OPD substrate tablets, and RIA grade BSA were obtained from Sigma (St. Louis, Mo.). Anti-biotin antibody was obtained from Calbiochem (La Jolla, Calif.). Linbro microtiter plates were obtained from Flow Labs (McLean, Va.). ADP reagent was obtained from Sigma (St. Louis, Mo.).
(§1) Solid Phase Receptor Assays
This assay was essentially the same as previously reported [Niiya et al., Blood, 70:475-483 (1987)]. The purified human vitronectin receptor (αvβ3) was diluted from stock solutions to 1.0 μg/mL in Tris-buffered saline containing 1.0 mM Ca^++, Mg^++, and Mn^++, pH 7.4 (TBS^+++). The diluted receptor was immediately transferred to Linbro microtiter plates at 100 μL/well (100 ng receptor/well). The plates were sealed and incubated overnight at 4° C. to allow the receptor to bind to the wells. All remaining steps were at room temperature. The assay plates were emptied and 200 μL of 1% RIA grade BSA in TBS^+++ (TBS^+++/BSA) were added to block exposed plastic surfaces. Following a 2 hour incubation, the assay plates were washed with TBS^+++ using a 96 well plate washer. Logarithmic serial dilution of the test compound and controls were made starting at a stock concentration of 2 mM and using 2 nM biotinylated vitronectin in TBS^+++/BSA as the diluent. This premixing of labeled ligand with test (or control) ligand, and subsequent transfer of 50 μL aliquots to the assay plate was carried out with a CETUS Propette robot; the final concentration of the labeled ligand was 1 nM and the highest concentration of test compound was 1.0×10^−4 M. The competition occurred for two hours after which all wells were washed with a plate washer as before. Affinity purified horseradish peroxidase labeled goat anti-biotin antibody was diluted 1:3000 in TBS^+++/BSA and 125 μL were added to each well. After 30 minutes, the plates were washed and incubated with OPD/H2O2 substrate in 100 mM/L Citrate buffer, pH 5.0. The plate was read with a microtiter plate reader at a wavelength of 450 nm and when the maximum-binding control wells reached an absorbance of about 1.0, the final A450 were recorded for analysis. The data were analyzed using a macro written for use with the EXCEL™ spreadsheet program. The mean, standard deviation, and %CV were determined for duplicate concentrations. The mean A450 values were normalized to the mean of four maximum-binding controls (no competitor added) (B-MAX). The normalized values were subjected to a four parameter curve fit algorithm [Rodbard et al., Int.

[2] = biological target: T2, Human fibrinogen receptor (αIIbβ3) (Homo sapiens, UniProt P05106+P08514); assay: Purified IIb/IIIa receptor assay (solid phase receptor assay, competition with biotinylated vitronectin); format: binding; settings: purified human αIIbβ3 from platelets; 1 nM biotinylated vitronectin; highest concentration 1.0×10^−4 M
T2 construct: Human fibrinogen receptor (αIIbβ3) was purified from outdated platelets; from tissue; host or cells: outdated (human) platelets
Text: Purified IIb/IIIa Receptor Assay
Human fibrinogen receptor (αIIbβ3) was purified from outdated platelets. (Pytela, R., Pierschbacher, M. D., Argraves, S., Suzuki, S., and Rouslahti, E. “Arginine-Glycine-Aspartic acid adhesion receptors”, Methods in Enzymology 144(1987):475-489.) Human vitronectin was purified from fresh frozen plasma as described in Yatohgo, T., Izumi, M., Kashiwagi, H., and Hayashi, M., “Novel purification of vitronectin from human plasma by heparin affinity chromatography,” Cell Structure and Function 13(1988):281-292. Biotinylated human vitronectin was prepared by coupling NHS-biotin from Pierce Chemical Company (Rockford, Ill.) to purified vitronectin as previously described. (Charo, I. F., Nannizzi, L., Phillips, D. R., Hsu, M. A., Scarborough, R. M., “Inhibition of fibrinogen binding to GP IIb/IIIa by a GP IIIa peptide”, J. Biol. Chem. 266(3)(1991): 1415-1421.) Assay buffer, OPD substrate tablets, and RIA grade BSA were obtained from Sigma (St. Louis, Mo.). Anti-biotin antibody was obtained from Calbiochem (La Jolla, Calif.). Linbro microtiter plates were obtained from Flow Labs (McLean, Va.). ADP reagent was obtained from Sigma (St. Louis, Mo.).
as §1
This assay is essentially the same reported in Niiya, K., Hodson, E., Bader, R., Byers-Ward, V. Koziol, J. A., Plow, E. F. and Ruggeri, Z. M., “Increased surface expression of the membrane glycoprotein IIb/IIIa complex induced by platelet activation: Relationships to the binding of fibrinogen and platelet aggregation”, Blood 70(1987):475-483. The purified human fibrinogen receptor (αIIbβ3) was diluted from stock solutions to 1.0 μg/mL in Tris-buffered saline containing 1.0 mM Ca^++, Mg^++, and Mn^++, pH 7.4 (TBS^+++). The diluted receptor was immediately transferred to Linbro microtiter plates at 100 μL/well (100 ng receptor/well). The plates were sealed and incubated overnight at 4° C. to allow the receptor to bind to the wells. All remaining steps were at room temperature. The assay plates were emptied and 200 μL of 1% RIA grade BSA in TBS^+++ (TBS^+++/BSA) were added to block exposed plastic surfaces. Following a 2 hour incubation, the assay plates were washed with TBS^+++ using a 96 well plate washer. Logarithmic serial dilution of the test compound and controls were made starting at a stock concentration of 2 mM and using 2 nM biotinylated vitronectin in TBS^+++/BSA as the diluent. This premixing of labeled ligand with test (or control) ligand, and subsequent transfer of 50 μL aliquots to the assay plate was carried out with a CETUS Propette robot; the final concentration of the labeled ligand was 1 nM and the highest concentration of test compound was 1.0×10^−4 M. The competition occurred for two hours after which all wells were washed with a plate washer as before. Affinity purified horseradish peroxidase labeled goat anti-biotin antibody was diluted 1:3000 in TBS^+++/BSA and 125 μL were added to each well. After 30 minutes, the plates were washed and incubated with […] substrate in 100 mM/L citrate buffer, pH 5.0. The plate was read with a microtiter plate reader at a wavelength of 450 nm and when the maximum-binding control wells reached an absorbance of about 1.0, the final A450 were recorded for analysis. The data were analyzed using a macro written for use with the EXCEL™ spreadsheet program. The mean, standard deviation, and %CV were determined for duplicate concentrations. The mean A450 values were normalized to the mean of four maximum-binding controls (no competitor added) (B-MAX). The normalized values were subjected to a four parameter curve fit algorithm, [Robard et al., Int.

[3] = tested on: Human platelet rich plasma; assay: Human platelet rich plasma assay (ADP induced platelet aggregation); format: cell-based; settings: concentration of half-maximal inhibition, read-out: Human PRP
Method: Human Platelet Rich Plasma Assays
Healthy aspirin free donors were selected from a pool of volunteers. The harvesting of platelet rich plasma and subsequent ADP induced platelet aggregation assays were performed as described in Zucker, M. B., “Platelet Aggregation Measured by the Photometric Method”, Methods in Enzymology 169(1989):117-133. Standard venipuncture techniques using a butterfly allowed the withdrawal of 45 mL of whole blood into a 60 mL syringe containing 5 mL of 3.8% trisodium citrate. Following thorough mixing in the syringe, the anti-coagulated whole blood was transferred to a 50 mL conical polyethylene tube. The blood was centrifuged at room temperature for 12 minutes at 200×g to sediment non-platelet cells. Platelet rich plasma was removed to a polyethylene tube and stored at room temperature until used. Platelet poor plasma was obtained from a second centrifugation of the remaining blood at 2000×g for 15 minutes. Platelet counts are typically 300,000 to 500,000 per microliter. Platelet rich plasma (0.45 mL) was aliquoted into siliconized cuvettes and stirred (1100 rpm) at 37° C. for 1 minute prior to adding 50 uL of pre-diluted test compound. After 1 minute of mixing, aggregation was initiated by the addition of 50 uL of 200 uM ADP. Aggregation was recorded for 3 minutes in a Payton dual channel aggregometer (Payton Scientific, Buffalo, N.Y.). […]

[4] = purified human αvβ3 from placenta, 1 nM biotinylated vitronectin, highest concentration 1.0×10^−4 M, read-out: AvB3 IC50

Row | Molecule | IC50 [1, 4] | IC50 [2] | IC50 ([1]; positive control included on each plate, read-out: IC50 (αvβ3 antagonist, positive control)) | IC50 [3]
1 | β-[[2-[[5-[(aminoiminomethyl)amino]-1-oxopentyl]amino]-1-oxoethyl]amino]-3-pyridinepropanoic acid [reference compound] |  |  | 3 to 10 nM | 
2 | N=C(N)Nc1cccc(C(=O)Nc2cccc(S(=O)(=O)NC(CC(=O)O)c3cc(Cl)cc(Cl)c3)c2)c1 (racemic) [Example 4, (±) β-[[[3-[[[3-[(Aminoiminomethyl)amino]phenyl]-carbonyl]amino]phenyl]sulfonyl]amino]-3,5-dichlorobenzene Propanoic Acid, Trifluoroacetate Salt] | 659 nM | 987 nM |  | 
3 | N=C(N)Nc1cccc(C(=O)Nc2cccc(S(=O)(=O)NC(CC(=O)O)c3ccccc3)c2)c1 (stereo not drawn) [Example 1, β-[[[3-[[[3-[(Aminoiminomethyl)amino]phenyl]carbonyl]amino]phenyl]sulfonyl]amino]-benzenepropanoic Acid, Trifluoroacetate Salt] | 1.66 nM | 11.3 nM |  | > 200 µM
4 | N=C(N)Nc1cccc(S(=O)(=O)Nc2cccc(S(=O)(=O)NC(CC(=O)O)c3ccccc3)c2)c1 (stereo not drawn) [Example 9, β-[[[3-[[[3-[(Aminoiminomethyl)amino]phenyl]-sulfonyl]amino]phenyl]sulfonyl]amino]phenyl-propanoic Acid, Trifluoroacetate Salt] | 29.3 nM | 93.6 nM |  | 
5 | C#C[C@H](CC(=O)O)NS(=O)(=O)c1cccc(NC(=O)c2cccc(NC3=NCCN3)c2)c1 [Example 7, 3S-[[[3-[[[3-[(4,5-Dihydro-1H-imidazol-2-yl)amino]-phenyl]carbonyl]amino]phenyl]sulfonyl]amino]-4-pentynoic Acid, Trifluoroacetate Salt] | 15 nM | 418 nM |  | 

Continued, in another order:

Row | IC50 [1, 4] | IC50 [2] | Molecule | IC50 ([1]; positive control included on each plate, read-out: IC50 (αvβ3 antagonist, positive control)) | IC50 [3]
6 | 183 nM | 3920 nM | N=C(N)Nc1cccc(C(=O)Nc2cccc(S(=O)(=O)N3CCCCC3CC(=O)O)c2)c1 (stereo not drawn) [Example 6, 1-[[3-[[[3-[(Aminoiminomethyl)amino]phenyl]carbonyl]-amino]phenyl]sulfonyl]piperidine-2-acetic Acid, Trifluoroacetate Salt] |  | 
7 | 11.3 nM | 38.2 nM | C#CC(CC(=O)O)NS(=O)(=O)c1cccc(NC(=O)c2cccc(NC(=N)N)c2)c1 (stereo not drawn) [Example 8, 3-[[[3-[[[3-[(Aminoiminomethyl)amino]phenyl]-carbonyl]amino]phenyl]sulfonyl]amino]-4-pentynoic Acid, Trifluoroacetate Salt] |  | 
8 | 4.66 nM | 24.7 nM | N=C(N)Nc1cccc(C(=O)Nc2cccc(S(=O)(=O)NC(CC(=O)O)c3cccnc3)c2)c1 (stereo not drawn) [Example 5, β-[[[3-[[[3-[(Aminoiminomethyl)amino]phenyl]-carbonyl]amino]phenyl]sulfonyl]amino]pyridine-3-propanoic Acid, tris(Trifluoroacetate) Salt] |  | 
9 | 5.34 nM | 11.6 nM | C=CC(CC(=O)O)NS(=O)(=O)c1cccc(NC(=O)c2cccc(NC(=N)N)c2)c1 (racemic) [Example 3, (±) 3-[[[3-[[[3-[(Aminoiminomethyl)amino]phenyl]-carbonyl]amino]phenyl]sulfonyl]amino]-4-pentenoic Acid, Trifluoroacetate Salt] |  | 
